From ChEMBL document CHEMBL1201862, “PubChem BioAssay data set” (2004)
The source made the active and inactive calls.

Tests used:
Assay type in all cases: functional
[1] = target: Potassium voltage-gated channel subfamily KQT member 2 (Rattus norvegicus, UniProt O88943, W236L); assay: KCNQ2 channel potentiators, dose response, mechanism study for KCNQ2 potentiator project, cell-based, automated electrophysiology (AID 2603)
[2] = nonselective inhibitors of cellular cAMP signaling, dose response, counter-screen for MC4R biased antagonist project, cell-based, TR-FRET cAMP detection (AID 602305);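 note: U2OS cells stimulated with forskolin near its EC80 as the cAMP inducer; potency is for inhibition of forskolin-stimulated cAMP signaling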
Melanocortin receptor 4 = Melanocortin receptor 4 (Homo sapiens, UniProt P32245); assay: MC4R antagonist potency on cAMP, dose response, cell-based, TR-FRET, biased antagonists (AID 602298);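 note: antagonist potency against agonist-stimulated cAMP production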
Mucolipin-3 = Mucolipin-3 (Homo sapiens, UniProt Q8TDD5); assay: Dose response cell-based high-throughput screening assay for agonists of the transient receptor potential channel ML3 (TRPML3). [Related pubchem assays: 1526, 1424, 1448 ]
Ion channel NompC = Ion channel NompC (Danio rerio, UniProt Q7T1G6); assay: Fluorescence counterscreen assay for TRPML3 agonists: dose response cell-based high-throughput screening assay to identify agonists of the transient receptor potential channel N1 (TRPN1). [Related pubchem assays: 1526, 1424, 1448 ]
Vero = assay: cells; details: Chlorocebus sabaeus
[3] = A High Throughput Confirmatory Assay used to Identify Novel Compounds that Inhibit Mycobacterium Tuberculosis in the absence of Glycerol.
[4] = microbe, parasite or virus in culture; details: Mycobacterium tuberculosis
[5] = inhibitors of Bluetongue virus cytopathic effect, confirmation, arbovirus, BSR cells (AID 1250);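 note: protection from viral cytopathic effect measured as cell viability by ATP luminescence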
Leucine aminopeptidase = target: T1, Leucine aminopeptidase (Plasmodium falciparum 3D7, UniProt Q8IL11); assay: P. falciparum M17LAP inhibitors, primary screen, biochemical, fluorogenic H-Leu-NHMec substrate, 1536-well (AID 1619)
T1 sequence (Q8IL11 whole entry): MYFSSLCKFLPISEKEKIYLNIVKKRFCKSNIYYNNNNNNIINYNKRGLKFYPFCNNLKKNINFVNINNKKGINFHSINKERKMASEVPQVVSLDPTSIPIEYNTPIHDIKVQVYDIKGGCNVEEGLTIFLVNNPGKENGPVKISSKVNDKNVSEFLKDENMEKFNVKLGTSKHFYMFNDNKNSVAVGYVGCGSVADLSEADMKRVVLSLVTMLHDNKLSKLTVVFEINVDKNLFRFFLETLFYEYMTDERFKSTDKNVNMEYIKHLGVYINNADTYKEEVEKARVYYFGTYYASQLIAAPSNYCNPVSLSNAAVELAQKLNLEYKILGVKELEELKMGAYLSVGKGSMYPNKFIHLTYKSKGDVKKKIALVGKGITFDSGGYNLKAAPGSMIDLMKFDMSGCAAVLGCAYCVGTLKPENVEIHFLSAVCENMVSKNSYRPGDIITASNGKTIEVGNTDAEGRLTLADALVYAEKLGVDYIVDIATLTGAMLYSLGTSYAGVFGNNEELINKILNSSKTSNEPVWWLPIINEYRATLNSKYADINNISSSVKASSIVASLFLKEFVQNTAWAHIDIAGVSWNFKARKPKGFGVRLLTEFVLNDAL

[6] = enhancers of respiration in Yfh1-depleted yeast, dose response, Friedreich's ataxia, plus single-dose screen (AID 1465);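 note: yeast depleted of Yfh1p frataxin homolog grown on glycerol needing respiration; WST-1 tetrazolium dye reduction as measure of cellular dehydrogenase metabolic activity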

Sequence of Mucolipin-3 (Q8TDD5 whole entry): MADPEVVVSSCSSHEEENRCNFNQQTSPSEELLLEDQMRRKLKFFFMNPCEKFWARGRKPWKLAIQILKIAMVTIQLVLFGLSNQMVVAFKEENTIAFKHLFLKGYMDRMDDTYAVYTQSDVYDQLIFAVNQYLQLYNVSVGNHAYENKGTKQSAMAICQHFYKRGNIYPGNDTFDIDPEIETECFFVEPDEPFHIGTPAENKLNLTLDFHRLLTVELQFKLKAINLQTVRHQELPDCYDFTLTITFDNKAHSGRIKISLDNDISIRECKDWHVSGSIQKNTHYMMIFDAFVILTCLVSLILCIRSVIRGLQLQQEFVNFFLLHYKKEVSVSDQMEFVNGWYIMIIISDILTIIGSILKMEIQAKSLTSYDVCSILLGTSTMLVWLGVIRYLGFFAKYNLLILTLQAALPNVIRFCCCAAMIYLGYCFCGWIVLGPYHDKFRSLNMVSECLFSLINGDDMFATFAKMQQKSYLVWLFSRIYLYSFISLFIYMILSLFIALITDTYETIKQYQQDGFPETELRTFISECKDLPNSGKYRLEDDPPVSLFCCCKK
Sequence of Ion channel NompC (Q7T1G6 whole entry): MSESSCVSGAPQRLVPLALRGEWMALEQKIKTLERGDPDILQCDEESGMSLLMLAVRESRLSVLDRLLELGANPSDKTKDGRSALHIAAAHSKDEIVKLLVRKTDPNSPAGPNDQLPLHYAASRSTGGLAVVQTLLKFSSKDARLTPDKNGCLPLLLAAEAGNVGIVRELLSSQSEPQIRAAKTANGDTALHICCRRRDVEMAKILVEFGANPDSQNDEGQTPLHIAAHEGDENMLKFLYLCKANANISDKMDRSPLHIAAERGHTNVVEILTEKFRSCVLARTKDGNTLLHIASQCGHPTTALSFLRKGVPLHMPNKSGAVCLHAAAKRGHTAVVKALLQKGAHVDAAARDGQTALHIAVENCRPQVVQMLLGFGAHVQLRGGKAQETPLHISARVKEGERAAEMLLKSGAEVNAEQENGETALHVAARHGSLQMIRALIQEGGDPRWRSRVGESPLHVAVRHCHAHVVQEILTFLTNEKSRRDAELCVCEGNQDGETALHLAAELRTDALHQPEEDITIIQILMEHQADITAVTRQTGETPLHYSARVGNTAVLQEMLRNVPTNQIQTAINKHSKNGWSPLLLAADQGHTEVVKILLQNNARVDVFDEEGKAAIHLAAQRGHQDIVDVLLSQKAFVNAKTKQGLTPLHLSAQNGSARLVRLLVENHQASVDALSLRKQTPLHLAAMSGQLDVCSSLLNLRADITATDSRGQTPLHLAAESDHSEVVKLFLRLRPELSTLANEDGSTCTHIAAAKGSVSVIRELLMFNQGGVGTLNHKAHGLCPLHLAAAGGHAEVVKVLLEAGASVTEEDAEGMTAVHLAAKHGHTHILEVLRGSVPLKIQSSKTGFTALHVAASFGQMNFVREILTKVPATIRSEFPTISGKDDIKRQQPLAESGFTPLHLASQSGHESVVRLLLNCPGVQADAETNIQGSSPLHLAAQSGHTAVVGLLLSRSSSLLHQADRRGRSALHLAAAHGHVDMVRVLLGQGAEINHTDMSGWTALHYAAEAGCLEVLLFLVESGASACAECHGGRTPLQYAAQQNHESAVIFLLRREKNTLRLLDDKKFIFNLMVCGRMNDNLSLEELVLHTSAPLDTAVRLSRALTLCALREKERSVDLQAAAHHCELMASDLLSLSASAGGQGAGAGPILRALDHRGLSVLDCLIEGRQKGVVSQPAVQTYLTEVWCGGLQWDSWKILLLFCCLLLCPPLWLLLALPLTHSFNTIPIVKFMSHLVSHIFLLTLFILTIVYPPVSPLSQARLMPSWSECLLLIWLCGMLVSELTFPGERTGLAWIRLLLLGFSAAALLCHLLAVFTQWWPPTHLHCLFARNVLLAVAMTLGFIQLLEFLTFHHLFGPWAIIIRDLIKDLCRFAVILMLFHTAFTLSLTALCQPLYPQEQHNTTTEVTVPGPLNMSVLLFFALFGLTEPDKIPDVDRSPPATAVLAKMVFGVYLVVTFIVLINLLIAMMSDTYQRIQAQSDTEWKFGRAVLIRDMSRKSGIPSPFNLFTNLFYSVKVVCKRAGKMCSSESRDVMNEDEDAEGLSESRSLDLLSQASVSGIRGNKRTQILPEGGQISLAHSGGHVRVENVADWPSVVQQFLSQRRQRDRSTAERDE
Sequence of Melanocortin receptor 4 (P32245 whole entry): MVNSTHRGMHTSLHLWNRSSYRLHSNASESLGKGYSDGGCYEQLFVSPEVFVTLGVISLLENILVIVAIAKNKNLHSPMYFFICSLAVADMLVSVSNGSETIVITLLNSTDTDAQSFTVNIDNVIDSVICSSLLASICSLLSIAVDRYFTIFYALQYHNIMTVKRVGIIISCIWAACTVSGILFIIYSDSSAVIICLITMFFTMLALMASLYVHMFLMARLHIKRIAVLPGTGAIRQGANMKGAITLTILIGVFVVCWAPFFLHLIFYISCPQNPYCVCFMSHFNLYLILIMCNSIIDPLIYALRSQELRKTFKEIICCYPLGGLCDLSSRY
Sequence of Potassium voltage-gated channel subfamily KQT member 2 (O88943 whole entry W236L): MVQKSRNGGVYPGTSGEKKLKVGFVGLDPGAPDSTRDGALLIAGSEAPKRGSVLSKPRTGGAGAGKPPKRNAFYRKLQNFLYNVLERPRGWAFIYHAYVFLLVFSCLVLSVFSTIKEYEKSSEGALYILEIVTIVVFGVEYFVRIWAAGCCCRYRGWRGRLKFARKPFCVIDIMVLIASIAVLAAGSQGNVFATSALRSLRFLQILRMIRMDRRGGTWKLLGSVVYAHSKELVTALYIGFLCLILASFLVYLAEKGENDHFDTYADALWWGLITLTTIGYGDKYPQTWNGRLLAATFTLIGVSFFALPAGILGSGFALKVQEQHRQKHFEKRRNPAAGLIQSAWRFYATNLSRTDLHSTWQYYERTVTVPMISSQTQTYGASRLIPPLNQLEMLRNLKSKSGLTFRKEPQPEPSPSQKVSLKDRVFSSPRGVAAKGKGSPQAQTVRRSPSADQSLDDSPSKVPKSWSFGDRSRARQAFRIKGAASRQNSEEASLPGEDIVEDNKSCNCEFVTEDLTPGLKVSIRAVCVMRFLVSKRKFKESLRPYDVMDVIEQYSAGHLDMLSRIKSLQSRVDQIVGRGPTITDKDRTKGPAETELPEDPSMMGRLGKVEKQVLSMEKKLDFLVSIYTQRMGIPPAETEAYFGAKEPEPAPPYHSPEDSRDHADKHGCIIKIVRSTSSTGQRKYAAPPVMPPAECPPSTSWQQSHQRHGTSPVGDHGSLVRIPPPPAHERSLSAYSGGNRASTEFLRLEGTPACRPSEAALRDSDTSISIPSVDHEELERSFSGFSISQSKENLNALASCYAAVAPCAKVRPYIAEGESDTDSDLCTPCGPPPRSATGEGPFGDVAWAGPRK

COC(=O)CSc1[nH]c2ccc(F)cc2c1[N+](=O)[O-]
EC50 [1]: 0.17 µM (active) | IC50 [2]: > 64.6 µM (inactive) | IC50 (Melanocortin receptor 4): > 64.6 µM (inactive)

COC(=O)c1c(NC(=O)COC(=O)[C@@H](NS(=O)(=O)c2ccc(C)cc2)C(C)C)sc2c1CCC2
EC50 (Mucolipin-3): 2.8 µM (active) | EC50 (Ion channel NompC): > 29.9 µM (not active)

CC(C(Sc1ccccc1N)c1ccccc1)[N+](=O)[O-] (stereo unspecified)
CC50 (Vero): 16.6 µM (active) | IC50 [3]: > 100 µM (active) | CC50 [4]: 32.6 µM (active)

Cc1ccc2cc(C3CC(c4ccco4)=NN3S(=O)(=O)c3ccccc3)c(Cl)nc2c1 (stereo unspecified)
IC50 [5]: 40.7 µM (active)

N#C/C(=C\c1ccc(N2CCOCC2)o1)C(=O)N1CCOCC1
IC50 (Leucine aminopeptidase): 99.7 µM (active) | EC50 [6]: > 100 µM (active)
